Among the data in patent EP4663198A1, “COMPOSITION CONTAINING CYCLIC PEPTIDE COMPOUND AND SURFACTANT” (CHUGAI SEIYAKU KABUSHIKI KAISHA, priority 2023, dated 2024) are Papp A→B values, retold here.

The conditions of this data set: Caco-2, pH 6.5.

Procedure: Caco-2 cells were cultured on 96-well Transwell for 3 weeks. […] From the permeation amount, the permeability coefficient (Caco-2 Papp (cm/sec)) was calculated.
From the measured permeation amount, the permeability coefficient was calculated.

With `CCO[C@@H]1C[C@H]2C(=O)NC3(CCCC3)C(=O)N[C@@H](C3CCCC3)C(=O)N(C)[C@H](C(=O)N(C)C)CC(=O)N(C)[C@@H](CC(C)C)C(=O)N[C@@H]([C@@H](C)CC)C(=O)N(C)CC(=O)N(C)[C@H]3C/C=C\CCN(C3=O)[C@@H](Cc3ccc(C(F)(F)F)cc3)C(=O)N(C)CC(=O)N[C@@H](CCc3cc(F)c(C(F)(F)F)c(F)c3)C(=O)N2C1` [CP01, (2S,8S,12R,14S,20S,23S,27S,30S,36S,38Z)-20-cyclopentyl-8-[2-[3,5-difluoro-4-(trifluoromethyl)phenyl]ethyl]-12-ethoxy-27-isobutyl-N,N,4,22,26,32,35-heptamethyl-30-[(1S)-1-methylpropyl]-3,6,9,15,18,21,25,28,31,34,42-undecaoxo-2-[(4-(trifluoromethyl)phenyl]methyl]spiro[1,4,7,10,16,19,22,26,29,32,35-undecazatricyclo[34.5.1.0^10,14]dotetraconta-38-en-17,1'-cyclopentane]-23-carboxamide], the Papp A→B came to 0.0525 ×10⁻⁶ cm/s.
